Assay results as given in patent US20230142739A1, “PROTEIN-PROTEIN INTERACTION STABILIZERS” (The Regents of the University of California, priority 2020, published 2023).

Experiments:
Assay type in all cases: binding
TBC1D237 peptide/14-3-3 = molecular target: T1, TBC1D237 peptide/14-3-3 (Homo sapiens, UniProt P61981); assay: Selectivity screening FA, TBC1D237 peptide; details: 100 μM fragment
T1 construct: the full length 14-3-3γ was dialysis against 25 mM HEPES pH 7.5; made in house; host or cells: E. coli BL21(DE3), pPROEX HTb
Text: (§1) Selectivity screening of covalent fragments. Drugging the hub protein 14-3-3 raises the challenge of selectivity. We hypothesized that the high level of cooperative behavior for 14-3-3/Pin1_72/28 complex is a function of the unique functionality and topology of the interface, specifically the +1 and +3 amino acid of Pin1_72 with the covalent fragment. We further rationalized that this cooperativity would likely translate to high selectivity. To test this hypothesis, fragments 13, 27 and 28 were screened at a single fragment concentration (100 μM) against a panel of 13 peptides as diverse representatives of 14-3-3 client proteins, differing in size and hydrophobicity of the +1 amino acid (FIG. 22A).
(§2) Fluorescence Anisotropy (FA) Assays.

Mypt1_472 peptide/14-3-3 = molecular target: T2, Mypt1_472 peptide/14-3-3 (Homo sapiens, UniProt P61981); assay: Selectivity screening FA, Mypt1_472 peptide; details: 100 μM fragment
T2 construct: the full length 14-3-3γ was dialysis against 25 mM HEPES pH 7.5; made in house; host or cells: E. coli BL21(DE3), pPROEX HTb
Text: as §1, §2

[1] = molecular target: T3, Raptor/14-3-3γ binary complex (Homo sapiens, UniProt P61981); assay: Selectivity screening FA, Raptor peptide; details: 100 μM fragment
T3 construct: the full length 14-3-3γ was dialysis against 25 mM HEPES pH 7.5; made in house; host or cells: E. coli BL21(DE3), pPROEX HTb
Text: as §1
Following the importance of the tryptophan for complex stabilization of Pin1_72/14-3-3γ with the benzaldehydes, the influence of phenylalanine (AS160) and tyrosine (Raptor) were investigated (FIGS. 22A-22B). […] Unlike Pin1_72, the C-terminus of AS160 engages Phe+1 in intramolecular hydrophobic contacts with Pro+4 and Pro+5. The +1 phenylalanine likely cannot rearrange to allow fragment binding.
as §2

Abl1pT735/14-3-3 = molecular target: T4, Abl1pT735/14-3-3 (Homo sapiens, UniProt P61981); assay: Selectivity screening FA, Abl1pT735 peptide; details: 100 μM fragment
T4 construct: the full length 14-3-3γ was dialysis against 25 mM HEPES pH 7.5; made in house; host or cells: E. coli BL21(DE3), pPROEX HTb
Description: (§3) Selectivity screening of covalent fragments. Drugging the hub protein 14-3-3 raises the challenge of selectivity.
(§4) This was investigated by comparing the effect of 13, 27 and 28 on 14-3-3 interaction partners with a leucine (Abl1pT735), isoleucine (p65pS45), or valine (CFTRpS753) at the +1 position.
(§5) Fluorescence Anisotropy (FA) Assays. […] All FA assays were measured in FA buffer (10 mM HEPES pH 7.4, 150 mM NaCl, 0.1% Tween20, 1% BSA) in Corning 384 well plates (black, round bottom, low binding). Plates were incubated overnight prior to anisotropy measurements with the Tecan Infinite 500 plate reader (λexcitation=485 nm, λemission=535 nm).

14-3-3/ERα complex = molecular target: T5, 14-3-3/ERα complex (Homo sapiens, UniProt P61981); assay: Selectivity screening FA, ERα peptide; details: 100 μM fragment
T5 construct: the full length 14-3-3γ was dialysis against 25 mM HEPES pH 7.5; made in house; host or cells: E. coli BL21(DE3), pPROEX HTb
T5 sequence (P61981 1-247): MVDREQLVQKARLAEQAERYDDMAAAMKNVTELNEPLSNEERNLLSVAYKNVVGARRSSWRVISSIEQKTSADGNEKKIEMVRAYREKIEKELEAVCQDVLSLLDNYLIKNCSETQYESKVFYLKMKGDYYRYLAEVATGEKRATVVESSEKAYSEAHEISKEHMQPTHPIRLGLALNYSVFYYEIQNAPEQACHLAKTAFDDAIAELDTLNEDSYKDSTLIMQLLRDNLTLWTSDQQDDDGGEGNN
Text: as §1, §2

CFTRpS753/14-3-3 = molecular target: T6, CFTRpS753/14-3-3 (Homo sapiens, UniProt P61981); assay: Selectivity screening FA, CFTRpS753 peptide; details: 100 μM fragment
T6 construct: the full length 14-3-3γ was dialysis against 25 mM HEPES pH 7.5; made in house; host or cells: E. coli BL21(DE3), pPROEX HTb
T6 sequence (P13569 747-774 partner limits assumed, one chain of several): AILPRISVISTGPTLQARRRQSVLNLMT
Description: as §3, §4, §5

p65pS45/14-3-3 = molecular target: T7, p65pS45/14-3-3 (Homo sapiens, UniProt P61981); assay: Selectivity screening FA, p65pS45 peptide; details: 100 μM fragment
T7 construct: the full length 14-3-3γ was dialysis against 25 mM HEPES pH 7.5; made in house; host or cells: E. coli BL21(DE3), pPROEX HTb
T7 sequence (as listed by the source partner, one chain of several): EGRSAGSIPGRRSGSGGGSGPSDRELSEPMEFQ
Description: as §3, §4, §5

14-3-3/Pin1_72 complex = molecular target: T8, 14-3-3/Pin1_72 complex (Homo sapiens, UniProt P61981); assay: Cooperativity analysis, 14-3-3 titrations at varied constant fragment concentration
T8 construct: the full length 14-3-3γ was dialysis against 25 mM HEPES pH 7.5; made in house; host or cells: E. coli BL21(DE3), pPROEX HTb
Text: Cooperativity in ternary complex formation. In contrast to PPI inhibition, where affinity to one of the protein pockets is the driving force for drug development, design of molecular glues is driven by cooperative ternary complex formation. Both CC50 and SF values are concentration dependent values and might differ based on assay design. […] Cooperative complex formation is often accompanied by structural changes of the interface of a complex which translates to increased stability of the ternary com-plex. In order to assess cooperativity of the ternary complex, fragments 13, 23, 27 and 28 were selected for cooper-activity analysis. The α-factor of the fragments were determined using 14-3-3 titrations in the presence of varied, but constant concentration of fragment in a dose-dependent manner. […] Further, the interval of change in stabilization further describes the systems cooperative behaviour.
However, at higher concentration regimes significant assay interference was observed, probably due to compound aggregation. Fragments 23, 27 and 28 all reached saturation or approached saturation enabling accurate determination of α-factor. […] KD remains constant also at higher concentrations of FC-A, indicating non-specific effects.

B-Raf_729 peptide/14-3-3 = molecular target: T9, B-Raf_729 peptide/14-3-3 (Homo sapiens, UniProt P61981); assay: Selectivity screening FA, B-Raf_729 peptide; details: 100 μM fragment
T9 construct: the full length 14-3-3γ was dialysis against 25 mM HEPES pH 7.5; made in house; host or cells: E. coli BL21(DE3), pPROEX HTb
Text: as §1, §2

ERRγ_179 peptide/14-3-3 = molecular target: T10, ERRγ_179 peptide/14-3-3 (Homo sapiens, UniProt P61981); assay: Selectivity screening FA, ERRγ_179 peptide; details: 100 μM fragment
T10 construct: the full length 14-3-3γ was dialysis against 25 mM HEPES pH 7.5; made in house; host or cells: E. coli BL21(DE3), pPROEX HTb
Text: as §1, §2

C-Raf peptide/14-3-3 = molecular target: T11, C-Raf peptide/14-3-3 (Homo sapiens, UniProt P61981); assay: Selectivity screening FA, C-Raf peptide; details: 100 μM fragment
T11 construct: the full length 14-3-3γ was dialysis against 25 mM HEPES pH 7.5; made in house; host or cells: E. coli BL21(DE3), pPROEX HTb
Text: as §1, §2

Pin1_72/14-3-3γ = molecular target: T12, Pin1_72/14-3-3γ (Homo sapiens, UniProt P61981+Q13526); assay: FA protein titrations in presence of 100 μM fragment, 13 representative 14-3-3/peptide interactions; details: 14-3-3γ titrations
T12 construct: the full length 14-3-3γ was dialysis against 25 mM HEPES pH 7.5; made in house; host or cells: E. coli BL21(DE3), pPROEX HTb
Description: FIGS. 22A-22F. […] FIG. 22A: Radar plot of the SFs determined by FA protein titrations in presence of 100 μM fragment. […] Right: close-up. FIG. 22B: The SF values determined with 14-3-3γ titrations in presence of 100 μM 13, 27 or 28 in FA assays (n=2). FIG. 22C: Structural overlay of the known 14-3-3 binding epitopes used in this study. FIG. 22D: Overlay of the binding pose of 13, 27 and 28 (line representation) with the AS160 binding epitope (PDB: 7NIX). FIG. 22E: Overlay of crystal structures of 13 (2Fo-Fc map at 1 as mesh) binding to the p65_45 (violet sticks, carton)/14-3-3γ complex (PDB: 7NQP) and the CFTR (cyan sticks, cartoon)/14-3-3 complex (PDB: 5D3F, FC-A hidden for clarity). Hydrophobic contacts between 13 and Ile+1 of p65 and Val+1 of CFTR are indicated by transparent spheres.

14-3-3/p65 = molecular target: T13, 14-3-3/p65 (Homo sapiens, UniProt P61981); assay: Cooperativity analysis of the 14-3-3/p65/28 complex; details: 1 mM compound; saturation not achieved
T13 construct: the full length 14-3-3γ was dialysis against 25 mM HEPES pH 7.5; made in house; host or cells: E. coli BL21(DE3), pPROEX HTb
T13 sequence (as listed by the source partner, one chain of several): as above
Description: Finally, we performed a cooperativity analysis of the 14-3-3/p65/28 complex to investigate how these structural observations translate to cooperativity. For the 14-3-3/p65/28 complex, saturation of the system was not achieved at concentration ≤1 mM with SF1 mM=37. […] The cooperative interactions within the 14-3-3/Pin1/28 complex are thus significant driving factors for the selective stabilization.

| SMILES | stabilization, TBC1D237 (TBC1D237 peptide/14-3-3) | stabilization, Mypt1_472 (Mypt1_472 peptide/14-3-3) | stabilization of the Raptor/14-3-3γ binary complex [1] [fold] | stabilizing activity, Abl1pT735 (Abl1pT735/14-3-3) | stabilization, ERα (14-3-3/ERα complex) | SF, CFTR (CFTRpS753/14-3-3) | stabilizing activity, CFTRpS753 (CFTRpS753/14-3-3) | stabilizing activity, p65pS45 (p65pS45/14-3-3) | cooperativity factor (α-factor) (14-3-3/Pin1_72 complex) | stabilization, B-Raf_729 (B-Raf_729 peptide/14-3-3) | stabilization, ERRγ_179 (ERRγ_179 peptide/14-3-3) | stabilization, C-Raf (C-Raf peptide/14-3-3) | selectivity of stabilization among 13 14-3-3/peptide interactions (Pin1_72/14-3-3γ) | SF1 mM (14-3-3/p65) | concentration necessary to induce a 2-fold increase in PPI stabilization (14-3-3/Pin1_72 complex) [µM] | stabilization of the Pin1/14-3-3 complex (14-3-3/Pin1_72 complex) [fold] |
| --- | --- | --- | --- | --- | --- | --- | --- | --- | --- | --- | --- | --- | --- | --- | --- | --- |
| O=Cc1ccc(-n2ccnc2-c2cc(Br)ccc2F)cc1Br [compound 27, 2-bromo-4-(2-(5-bromo-2-fluorophenyl)-1H-imidazol-1-yl)benzaldehyde] | no significant stabilization | no significant stabilization | 9.5 | some stabilizing activity | not responsive to fragment stabilization | 12.5 | some stabilizing activity | some stabilizing activity | approximately 60 | no significant stabilization | no significant stabilization | abolishes any stabilizing effect | – | – | – | – |
| O=Cc1ccc(-n2ccnc2-c2ccc(F)cc2F)cc1Br [compound 28, 2-bromo-4-(2-(2,4-difluorophenyl)-1H-imidazol-1-yl)benzaldehyde] | no significant stabilization | no significant stabilization | – | no significant complex stabilization | not responsive to fragment stabilization | – | no significant complex stabilization | no significant complex stabilization | 270 | no significant stabilization | no significant stabilization | abolishes any stabilizing effect | selective stabilization of the 14-3-3/Pin1_72 complex | 37 | 1 | 270 |
